{
  "source": "patent US8597660B2",
  "about": "“Therapeutic approach to neurodegenerative disorders using a TFP5-peptide” (The United States of America, as represented by the …, priority 2010, dated 2013)",
  "key": {"[1]": {"test": "Toxicity of ip TFP5 in mice", "type": "in vivo, mouse", "conditions": "ip TFP5 (0.2 mM; or 10 weeks in three AD mice)"}, "[2]": {"test_system": "tau phosphorylation", "test": "Aβ-induced tau phosphorylation in cortical neurons, Western blot", "type": "cell-based, rat", "conditions": "Aβ 6 h; P5 infection or roscovitine", "protocol": "Primary cultures of rat cortical neurons were prepared from E-18 rat fetuses as described previously (Zheng et al., J Biol Chem 278(26), 24026-24032, 2003). After 7 days, cells were infected independently or co-infected with empty vector (EV), the constructs of P5, P25, P35, wild-type Cdk5 and dominant negative Cdk5 (changing Lys33 to Thr33) using the Adenoviral vector (pAdTrack-CMV) packaging system as described above. […] The cells were fixed for immunocytochemistry analyses (ICC) or lysed with lysis buffer for immunoprecipitation and Western blot analyses. Cortical neuron cultures were prepared and plated on the cover slips as described. Human embryo kidney cells (HEK293) were grown as described previously (Zheng et al., Eur J Biochem 269(18), 4427-4434, 2002). In these studies HEK293 cells on day 1, or neurons on day 5, were transfected with or without Myc-P5-GFP using Lipofectamine 2000 following the manufacturer's instructions.\n(§1) Western blot analysis was performed as previously described (Zheng et al., Eur J Biochem 269(18), 4427-4434, 2002). In brief, an equal amount of total protein (20 μg/lane) was resolved on a 4-20% SDS polyacrylamide gel and blotted onto a polyvinylidene difluoride membrane. This membrane was incubated in blocking buffer containing 20 mM Tris-HCl (pH 7.4), 150 mM NaCl, and 0.1% (vol/vol) Tween 20 (TTBS) plus 5% dry milk (w/v) for 1 hour at room temperature followed by incubation overnight at 4° C. in primary antibodies (see antibodies). The membranes were then washed four times in TTBS (5 minutes/each) followed by incubation in secondary antibody (goat-antimouse or goat anti-rabbit IgG (H+L)-horseradish peroxidase (HRP) conjugate at a dilution of 1:3000) for 1 hour at room temperature. Western blots were analyzed using the Amersham Enhanced Chemiluminescence (ECL) kit following the manufacturer's instructions (GE Healthcare, Piscataway, N.J.).\nAmyloid plaques and neurofibrillary tangles, pathological hallmarks of several neurodegenerative disorders, are linked to deregulated Cdk5 and neuronal death. According to one model, β amyloid, being toxic, may evoke abnormal calcium influx into neurons which activates calpains. […] Hyperactivation of Cdk5, leads to the aberrant phosphorylation of tau and neurofilaments in a number of neurodegenerative diseases including AD and ALS. For example, primary cortical neurons, when treated with Aβ1-42 are induced to form Cdk5/P25 complexes, hyperactive Cdk5 activity, hyperphosphorylation of tau, and neuronal apoptosis. To determine whether P5 will inhibit endogenous tau phosphorylation induced by Aβ treatment in cortical neurons, 7 day old cortical neurons, infected with empty vector (EV) or with P5 were treated with Aβ for 6 hours, lysed and prepared for Cdk5 immunoprecipitation and kinase assay. Aβ treatment causes an approximate 3-fold increase in endogenous Cdk5 activity as visualized by histone H1 phosphorylation (FIG. 4A, panel 5, lane 2; FIG. 4B).\n; FIG. 4D). […] Tau antibodies p-Ser404, PHF antibody AT180 (recognizes p-Thr231) and p-Ser422 antibodies were used to observe whether P5 affects other tau phosphorylation residues (FIGS. 4E, 4F). […]. Tau 5 recognizes total tau, nonphosphorylated as well as phosphorylated."}, "[3]": {"test_system": "cleaved caspase-3", "test": "Cleaved caspase-3 Western blot in Aβ-treated cortical neurons", "type": "cell-based, rat", "conditions": "Aβ 6 h; P5 infection or roscovitine", "protocol": "as §1\nTo determine whether P5 inhibited neuronal apoptosis induced by Aβ, primary cortical neurons (5 days in culture (DIC)) were transfected with P5-GFP using Lipofectamine 2000. After 24 hours, cells were exposed to Aβ for 6 hours. The neurons were fixed and subjected to TUNEL staining, while P5 was visualized by (green fluorescent protein) GFP. […] The data are quantified in FIG. 5B. […] The data are quantified in FIG. 5D."}, "[4]": {"molecular_target": "T1, Cdk5/P25 (Homo sapiens, UniProt Q00535)", "T1 sequence (Q00535 whole entry, species assumed)": "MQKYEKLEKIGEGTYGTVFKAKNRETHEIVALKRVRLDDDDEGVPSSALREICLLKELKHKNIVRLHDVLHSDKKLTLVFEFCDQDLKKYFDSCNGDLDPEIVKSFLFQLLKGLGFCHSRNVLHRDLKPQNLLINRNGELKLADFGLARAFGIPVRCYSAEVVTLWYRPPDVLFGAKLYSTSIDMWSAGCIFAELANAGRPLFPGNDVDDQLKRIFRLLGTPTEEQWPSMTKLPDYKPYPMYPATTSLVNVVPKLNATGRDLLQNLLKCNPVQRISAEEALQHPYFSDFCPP", "conditions": "earlier studies; cited from earlier work"}, "[5]": {"molecular_target": "T1, Cdk5/P25", "conditions": "earlier studies, cited from earlier work"}, "[6]": {"molecular_target": "T1, Cdk5/P25", "test": "In vitro kinase (pad) assay of active Cdk5/P25 with histone H1 as substrate", "type": "biochemical", "conditions": "in vitro kinase assay, histone H1, FIG. 1", "protocol": "Kinase assays were performed as previously described (Veeranna, et al., J Neurosci 18(11), 4008-4021, 1998). Briefly, 7 days in culture (7 DIC) primary rat cortical neurons were infected with P25, P35, Cdk5 wild-type, dominant negative-Cdk5 and P5 using the lentiviral gene delivery as described earlier. Cdk5 was immunoprecipitated using the polyclonal C8 antibody overnight at 4° C. and immunoglobulin isolated using Protein A sepharose beads for 2 hours at 4° C. Immunoprecipitates were washed three times with lysis buffer and then once with 1× kinase buffer containing 20 mM Tris-Cl pH 7.4, 1 mM EDTA, 1 mM EGTA, 10 mM MgCl2, 10 mM sodium fluoride and 1 mM sodium orthovanadate. Endogenous Cdks were immunoprecipitated from HEK 293 cells using their respective antibodies and treated as above. Kinase assays were performed in the same buffer containing 1 mM DTT, 0.1 mM ATP and 0.185 MBq [γ-32P] ATP with 20 μg of histone H1 as the substrate. Phosphorylation was performed in a final volume of […] incubated at 30° C. for 60 minutes, stopped by the addition of 10% SDS sample buffer and heating at 95° C. for 5 minutes. Samples were separated by SDS-PAGE, gels were stained with Coomassie, destained, dried and exposed to autoradiography. In pad assays, 25 μl aliquots of the incubation mixture were placed on a Whatman p80 paper square, washed and dried and placed in a scintillation vial for counting.\nThese are GST-P1 (E211-A277 of SEQ ID NO: 16), 67 amino acid residues; GST-P2 (M237-A277), 41 residues; GST-P3 (E221-L267 of SEQ ID NO: 16), 47 residues; GST-P4 (E221-L249 of SEQ ID NO: 16), 29 residues and GST-P5 (K254-A277 of SEQ ID NO: 16) 24 residues. Each was incubated with active Cdk5/P25 in a kinase assay in vitro. […] FIG. 10 provides a comparison of P5 and CIP, relative to P35.\nIn a dose-dependent kinase assay the effective inhibitory concentration of P5 for both the Cdk5/P25 and Cdk5/P35 complexes was evaluated. His-P5 peptide was added at different concentrations to the in vitro assay containing 100 μM [γ32-P] ATP and histone H1. Inhibition increased progressively with increasing P5 concentration in both complexes (Compare FIGS. 2A, 2B with 2C, 2D).\nP5, a 24 amino acid peptide derived from Cdk5 regulator p35, was modified by conjugating it with TAT PTD at the C-terminal end and with FITC (using a GGG linker) at the N-terminus to produce a fluorescent (FITC-labeled) TFP5 (SEQ ID NO: 2) peptide. In a dose-dependent kinase assay the effective inhibitory concentration of TFP5 for both the Cdk5/P25 and Cdk5/P35 complexes was evaluated. His-P5 peptide was added at different concentrations to the in vitro assay containing 100 μM [γ32-P] ATP and histone H1. […] Data represent means of four independent experiments with error bars representing SEM (*p≦0.05, **p≦0.001)."}},
  "note": "“Also recorded” adds a separate entry of the source. Peptide text beside a SMILES is read from it. * marks the point of attachment. FITC = O=C1OC2(c3ccc(O)cc3Oc3cc(O)ccc32)c2ccc(NC(=S)*)cc21",
  "data": [
    {"molecule": "CC[C@H](C)[C@H](NC(=O)[C@H](CCC(N)=O)NC(=O)[C@H](CC(C)C)NC(=O)[C@H](CCSC)NC(=O)[C@H](CCCCN)NC(=O)[C@H](CO)NC(=O)[C@H](CO)NC(=O)[C@H](CCSC)NC(=O)[C@H](CC(C)C)NC(=O)[C@H](CC(N)=O)NC(=O)[C@@H](NC(=O)[C@@H](NC(=O)[C@H](CO)NC(=O)[C@H](CC(C)C)NC(=O)[C@H](CS)NC(=O)[C@H](CCCNC(=N)N)NC(=O)[C@H](CC(=O)O)NC(=O)[C@H](Cc1c[nH]c2ccccc12)NC(=O)[C@H](Cc1ccccc1)NC(=O)[C@H](C)NC(=O)[C@H](CCC(=O)O)NC(=O)[C@H](CCCCN)NC(=O)CNC(=O)CNC(=O)CNC(=S)Nc1ccc2c(c1)C(=O)OC21c2ccc(O)cc2Oc2cc(O)ccc21)C(C)C)[C@@H](C)CC)C(=O)N[C@@H](CC(N)=O)C(=O)N[C@@H](C)C(=O)N[C@@H](Cc1ccc(O)cc1)C(=O)N[C@@H](C)C(=O)N[C@@H](CCCNC(=N)N)C(=O)N[C@@H](C)C(=O)N[C@@H](C)C(=O)N[C@@H](CCCNC(=N)N)C(=O)N[C@@H](CCCNC(=N)N)C(=O)N[C@@H](C)C(=O)N[C@@H](C)C(=O)N[C@@H](CCCNC(=N)N)C(=O)N[C@@H](CCCNC(=N)N)C(=O)O", "note": "[TFP5] ({FITC}-GGGKEAFWDRCLSVINLMSSKMLQINAYARAARRAARR-OH)", "values": [
      {"measurement": "Toxicity in vivo", "setting": "[1]", "value": "without any toxicity; also recorded: without resulting in cell death; also recorded: no toxic effects were observed"}
    ]},
    {"molecule": "CC[C@H](CO)Nc1nc(NCc2ccccc2)c2ncn(C(C)C)c2n1", "note": "[roscovitine, reference compound]", "values": [
      {"measurement": "Aβ-induced tau phosphorylation at Ser422", "setting": "[2]", "value": "significantly inhibits tau phosphorylation at Ser422 site"},
      {"measurement": "Aβ-induced tau phosphorylation detected by AT8 and p-Ser199/202 antibodies", "setting": "[2]", "value": "baseline levels of tau phosphorylation; also recorded: significantly inhibited"},
      {"measurement": "Cleaved caspase-3 expression", "setting": "[3]", "value": "reduced levels of cleaved caspase-3 comparable to that seen with P5 infection"}
    ]},
    {"molecule": "CIP: 125-amino acid truncated peptide from P35 (residues 154-279 of SEQ ID NO: 16), inhibitor of Cdk5/P25", "values": [
      {"measurement": "Inhibition of Cdk5/P25 activity by CIP", "setting": "[4]", "value": "highly effective and specific inhibitor of Cdk5/P25 activity"},
      {"measurement": "Tau hyperphosphorylation", "setting": "[5]", "value": "reduces tau hyperphosphorylation"},
      {"measurement": "Apoptosis induced by Cdk5/P25", "setting": "[5]; transfected HEK cells and neurons", "value": "protects transfected HEK cells and neurons from apoptosis"}
    ]},
    {"molecule": "P3: 47 residue peptide derived from CIP, E221-L267 of SEQ ID NO: 16 (P35)", "values": [
      {"measurement": "Inhibition of Cdk5/P25 activity, comparison among peptides and CIP", "setting": "[6]", "value": "more effective inhibitors of Cdk5/P25 activity than CIP"}
    ]}
  ]
}
